Patent US12357536B2, “Containers with selective dissolved gas content” (BAXTER INTERNATIONAL INC., priority 2021, dated 2025)

Assays:
[1] = Stability of a trace element mix in glass bottle, 6 months at 5° C. or 40° C. (Table V); conditions: for Concentration recovered, T6M 5° C. / Percentage of the recovered TE, T6M 5° C. / Concentration recovered, T6M 40° C. / Percentage of the recovered TE, T6M 40° C.: TE mix, pH 2.2, 200 mM malic acid, glass bottle (about 3 ppm DO), heat sterilized; for Concentration recovered, T6M 5° C. / Percentage of the recovered TE, T6M 5° C.: 6 months at 5° C.; for Percentage of the recovered TE, T6M 5° C. / Percentage of the recovered TE, T6M 40° C.: vs theoretical concentration; for Concentration recovered, T6M 40° C. / Percentage of the recovered TE, T6M 40° C.: 6 months at 40° C.
Method: The solution was heat sterilized and stored 6 months at 40° C. or 5° C.(T6M 40° C. and T6M 5° C., respectively).

[2] = Regression between Se assay and log dissolved oxygen (Example 7, FIG. 13); format: physicochemical; conditions: fitted line Se dosage vs log oxygen content; sterilized samples stored at 40° C.
Method: The impact of oxygen seems of major importance in the stability of Selenite. […] To confirm this hypothesis, a regression test was performed between Se assay results and log(dissolved oxygen results). Only sterilized samples stored at 40° C. were considered as the sterilization and storage at high temperature seem to both increase the Se degradation.
Dissolved oxygen content is so the most impacting parameter and CQA (Critical Quality Attribute) in the stability of Selenium. As shown in the Figure, low oxygen amounts of around 0.5 ppm can be sufficient to ensure the stability of Selenite in solution, no saturation would be required.

SMILES | Percentage of the recovered TE, T6M 5° C. [1] | Percentage of the recovered TE, T6M 40° C. [1] | Concentration recovered, T6M 5° C. [1] | Concentration recovered, T6M 40° C. [1] | Oxygen amount sufficient to ensure the stability of Selenite in solution [2] | Stability of selenite ([1]; in the presence of few ppm of dissolved oxygen)
[Cr] [Cr, chromium] | 77.3% | 83.1% | 306 ng/mL | 329 ng/mL | – | –
[Se] [Se, selenium] | 87.2% | 87.7% | 2446 ng/mL | 2461 ng/mL | – | –
O=[Se](O)O [selenite, sodium selenite] | – | – | – | – | around 0.5 ppm | stable
[Mo] [Mo, molybdenum] | 79.9% | 86.6% | 653 ng/mL | 707 ng/mL | – | –
[Zn] [Zn, zinc] | 77.8% | 84.4% | 158347 ng/mL | 171822 ng/mL | – | –

More lines, main results first:

Percentage of the recovered TE, T6M 5° C. [1] | Percentage of the recovered TE, T6M 40° C. [1] | SMILES | Concentration recovered, T6M 5° C. [1] | Concentration recovered, T6M 40° C. [1] | Oxygen amount sufficient to ensure the stability of Selenite in solution [2] | Stability of selenite ([1]; in the presence of few ppm of dissolved oxygen)
94% | 88% | F [F, fluoride] | – | – | – | –
78.6% | 84.4% | I [I, iodide] | 3167 ng/mL | 3401 ng/mL | – | –
81.1% | 87.1% | [Cu] [Cu, copper] | 9784 ng/mL | 10504 ng/mL | – | –
